{"source": "patent US20130189248A1", "about": "“EGFR INHIBITOR AND ANTIVIRAL AGENT FOR SIMULTANEOUS, SEPARATE OR SEQUENTIAL USE IN THE TREATMENT AND/OR PREVENTION AND/OR PALLIATION OF CANCER” (priority 2010, published 2013)", "key": {"viral DNA polymerase": {"system": "viral DNA polymerase", "conditions": "cited from earlier work"}, "[1]": {"system": "HeLa cells (human HPV-positive cervical carcinoma cells)", "assay": "Clonogenicity test on HeLa cells (with Bliss additivity model)", "type": "cell-based", "protocol": "(§1) The cell lines are available from the American Type Culture Collection (ATCC): • HeLa cells (human HPV-positive cervical carcinoma cells): ATCC n° CCL-2; • Me180 cells (human HPV-positive cervical carcinoma cells): ATCC n° HTB-33; • C33A cells (human HPV-negative cervical carcinoma cells): ATCC n° HTB-31. • H460 cells (human HPV-negative lung carcinoma cells): ATCC n° HTB-177.\nThe HeLa cells contained 10-50 copies of integrated HPV18.\n(§2) The cell lines were grown in humid incubators at 37° C. under 5% CO2.\n(§3) Each of said treatments last the 10-15 days of the clonogenic assay.\n(§4) The culture medium has not been replaced during the assay.\n(§5) The cultures were stopped by fixing and staining with crystal violet (methanol 80%, formaldehyde 10%, crystal violet 1.25 g), when the clones reached 50 cells. The clones were then counted and related to the number of cells cultured to obtain the fraction of surviving cells.\n(§6) The Bliss additivity model was used to classify the effect of the drug combination as synergistic, additive or antagonist.\n(§7) A theoretical curve of the expected effect of the combination was calculated from the equation:\n(§8) Bliss effect=effect A+effect B−effect A×effect B,\n(§9) where effect A and effect B are the effects of drugs A and B alone at specific concentrations.\n(§10) Here, the Bliss effect is the expected effect when the combination of the two drugs is exactly additive. If the observed effect (the experimentally measured effect of the combination) is lower than the Bliss effect, the effect of the combination is said to be antagonist (delta=observed effect−Bliss effect is a negative value). If the observed effect is greater than the Bliss effect, the effect of the combination is synergistic (delta is positive).\n(§11) The data are expressed as a percentage decrease in cell viability beyond that which would be expected if the association were strictly additive."}, "[2]": {"system": "C33A cells (human HPV-negative cervical carcinoma cells)", "type": "cell-based", "protocol": "as §1, §2, §3, §4, §5, §6, §7, §8, §9, §10, §11"}, "Me180 xenograft": {"system": "Me180 xenograft", "assay": "Me180 xenograft in mice", "type": "in vivo", "conditions": "cidofovir, cetuximab alone or combined"}, "[3]": {"conditions": "cidofovir 3 mg/kg, AIDS patients with CMV retinitis, after 1 hour of infusion; cited from earlier work"}, "[4]": {"system": "H460 cells (human HPV-negative lung carcinoma cells)", "assay": "Clonogenicity test on H460 cells", "type": "cell-based", "conditions": "H460 (printed H480); cidofovir alone (10 μg/mL, FIG. 4A)", "protocol": "as §1, §2, §3, §4, §5"}, "HeLa xenograft": {"system": "HeLa xenograft", "assay": "HeLa xenograft in female nude mice", "type": "in vivo", "conditions": "cidofovir i.p. days 1-5, cetuximab i.p. 1 mg/mouse days 1, 4, 7, alone or combined", "protocol": "Unless otherwise indicated, materials and methods are those described in example 1 above. The in vivo experiments were carried out at the Institut Gustave Roussy (94805 Villejuif; France), with the approval of the French Ministry of Agriculture.\n10- to 12-week old female nude mice were injected subcutaneously (into the flank) with 2×10^6 live HeLa cells suspended in 100 μL of culture medium without Fetal Calf Serum (FCS) to study tumor growth. […] Tumor volume and weight were monitored twice a week. The mice were sacrificed when the tumor reached ten times the initial volume."}, "[5]": {"system": "Me180 cells (human HPV-positive cervical carcinoma cells)", "assay": "Clonogenicity test on Me180 cells (with Bliss additivity model)", "type": "cell-based", "protocol": "as §1\nMe180 cells were grown in the GIBCO® McCoy's 5A medium (available from Invitrogen under catalog reference number 26600023), supplemented with 10% FCS, 1% penicillin/streptomycin and 1% glutamine.\nas §2, §3, §4, §5, §6, §7, §8, §9, §10, §11"}, "herpesvirus polymerases": {"system": "herpesvirus polymerases", "conditions": "cited from earlier work"}, "[6]": {"conditions": "human, in vivo; cited from earlier work"}, "[7]": {"conditions": "erlotinib alone 0.1 μM/mL, listed as Erlotinib"}, "[8]": {"conditions": "foscarnet sodium alone 200 μM/mL, listed as Foscarnet"}, "[9]": {"conditions": "foscarnet sodium alone 200 μM/mL, listed as Foscarnet sodium"}}, "note": "Where two headings read alike, the source gives them in different places.", "data": [{"molecule": "Nc1nc2c(ncn2COCCOP(=O)(O)OP(=O)(O)OP(=O)(O)O)c(=O)[nH]1", "note": "[Acyclo-GTP, acyclo-guanosine triphosphate]", "values": [{"measurement": "times greater affinity for viral than cellular polymerase", "setting": "viral DNA polymerase", "value": "approximately 100 times"}]}, {"molecule": "Nc1ccn(C[C@@H](CO)OCP(=O)(O)O)c(=O)n1", "note": "[cidofovir, 1-[(S)-3-hydroxy-2-(phophonomethoxy)propyl]cytosine dehydrate]", "values": [{"measurement": "concentration at which the drug alone had an effect on clonogenicity", "setting": "[1]; cidofovir alone", "value": "at least 5 μg/mL"}, {"measurement": "reduction in clonogenicity compared to the control / Decrease in living cells (%)", "setting": "[1]; cidofovir alone 5 μg/mL", "value": 15, "unit": "%"}, {"measurement": "reduction in clonogenicity compared to the control", "setting": "[1]; cidofovir alone 10 μg/mL", "value": 25, "unit": "%"}, {"measurement": "clonogenic survival", "setting": "[1]; cidofovir alone at 1 μg/mL", "value": "about 100%"}, {"measurement": "reduction in cell survival compared to the control", "setting": "[2]; cidofovir alone 1 μg/mL", "value": "about 20%"}, {"measurement": "reduction in cell survival / clonogenicity compared to the control / Decrease in living cells (%)", "setting": "[2]; cidofovir alone 5 μg/mL", "value": "minus 20%"}, {"measurement": "tumor growth compared to the control group", "setting": "Me180 xenograft", "value": "does not reduce tumor growth"}, {"measurement": "plasmatic concentration", "setting": "[3]", "value": "7.6 ± 1.4", "unit": "µg/mL"}, {"measurement": "effect on cell survival", "setting": "[4]", "value": "no significant effect"}, {"measurement": "tumor growth (tumor volume) compared to the control group", "setting": "HeLa xenograft", "value": "does not reduce tumor growth"}, {"measurement": "concentration at which the drug alone had an effect on the cells", "setting": "[5]; cidofovir alone", "value": "at least 1 μg/mL"}, {"measurement": "reduction in cell survival (clonogenicity) compared to the control", "setting": "[5]; cidofovir alone 1 μg/mL", "value": "about 30%"}, {"measurement": "reduction in clonogenicity compared to the control / Decrease in living cells (%)", "setting": "[5]; cidofovir alone 5 μg/mL", "value": 40, "unit": "%"}]}, {"molecule": "C#Cc1cccc(Nc2ncnc3cc(OCCOC)c(OCCOC)cc23)c1", "note": "[erlotinib, N-(3-ethynylphenyl)-6,7-bis(2-methoxyethoxy)-4-quinazolinamine]", "values": [{"measurement": "reduction in clonogenicity compared to the control / Decrease in living cells (%)", "setting": "[1]; erlotinib alone 0.1 μM/mL", "value": "minus 50%"}, {"measurement": "reduction in clonogenicity compared to the control / Decrease in living cells (%)", "setting": "[1]; [7]", "value": 50, "unit": "%"}, {"measurement": "reduction in clonogenicity compared to the control / Decrease in living cells (%)", "setting": "[2]; erlotinib alone 0.1 μM/mL", "value": "minus 10%"}, {"measurement": "reduction in clonogenicity compared to the control / Decrease in living cells (%)", "setting": "[2]; [7]", "value": 10, "unit": "%"}, {"measurement": "reduction in clonogenicity compared to the control / Decrease in living cells (%)", "setting": "[5]; erlotinib alone 0.1 μM/mL", "value": "minus 50%"}, {"measurement": "reduction in clonogenicity compared to the control / Decrease in living cells (%)", "setting": "[5]; [7]", "value": 50, "unit": "%"}, {"measurement": "reduction in clonogenicity compared to the control / Decrease in living cells (%)", "setting": "[5]; erlotinib alone 0.5 μM/mL", "value": "minus 80%"}, {"measurement": "reduction in clonogenicity compared to the control / Decrease in living cells (%)", "setting": "[5]; erlotinib alone 0.5 μM/mL, listed as Erlotinib", "value": 80, "unit": "%"}]}, {"molecule": "O=C(O)P(=O)(O)O", "note": "[foscarnet, phosphonoformic acid]", "values": [{"measurement": "reduction in clonogenicity compared to the control / Decrease in living cells (%)", "setting": "[1]; [8]", "value": "minus 20%"}, {"measurement": "reduction in clonogenicity compared to the control / Decrease in living cells (%)", "setting": "[1]; [9]", "value": 20, "unit": "%"}, {"measurement": "reduction in clonogenicity compared to the control / Decrease in living cells (%)", "setting": "[2]; [8]", "value": "minus 20%"}, {"measurement": "reduction in clonogenicity compared to the control / Decrease in living cells (%)", "setting": "[2]; [9]", "value": 20, "unit": "%"}, {"measurement": "reduction in clonogenicity compared to the control / Decrease in living cells (%)", "setting": "[5]; [8]", "value": "minus 35%"}, {"measurement": "reduction in clonogenicity compared to the control / Decrease in living cells (%)", "setting": "[5]; [9]", "value": 35, "unit": "%"}]}, {"molecule": "Cidofovir diphosphate", "values": [{"measurement": "fold lower concentration needed to inhibit herpesvirus polymerases than human cellular DNA polymerases", "setting": "herpesvirus polymerases", "value": "8- to 600 fold"}]}, {"molecule": "Vectibix®: recombinant, fully human IgG2 kappa monoclonal antibody that binds specifically to the human EGFR", "values": [{"measurement": "incidence of NCI-CTC grade 3-5 adverse reactions", "setting": "[6]", "value": 87, "unit": "%"}, {"measurement": "patients with dermatologic toxicities", "setting": "[6]", "value": 89, "unit": "%"}, {"measurement": "patients with severe dermatologic toxicities (NCI-CTC grade 3 and higher)", "setting": "[6]", "value": 12, "unit": "%"}]}]}
